Experimental data from patent US11352349B2, “Type II topoisomerase inhibitors and methods of making and using thereof” (Ohio State Innovation Foundation, priority 2017, dated 2022).
In brackets after ≈: the same amount, converted by molar mass. Read-outs that look alike come from different tables or passages of the source.

What was measured:
[1] = target: T1, Staphylococcus aureus Topo IV (Staphylococcus aureus, UniProt P0C1S7+P0C1U9); experiment: Staphylococcus aureus Topo IV decatenation assay; format: biochemical
T1 construct: purchased Inspiralis, Norwich, UK
T1 sequence (P0C1S7 whole entry): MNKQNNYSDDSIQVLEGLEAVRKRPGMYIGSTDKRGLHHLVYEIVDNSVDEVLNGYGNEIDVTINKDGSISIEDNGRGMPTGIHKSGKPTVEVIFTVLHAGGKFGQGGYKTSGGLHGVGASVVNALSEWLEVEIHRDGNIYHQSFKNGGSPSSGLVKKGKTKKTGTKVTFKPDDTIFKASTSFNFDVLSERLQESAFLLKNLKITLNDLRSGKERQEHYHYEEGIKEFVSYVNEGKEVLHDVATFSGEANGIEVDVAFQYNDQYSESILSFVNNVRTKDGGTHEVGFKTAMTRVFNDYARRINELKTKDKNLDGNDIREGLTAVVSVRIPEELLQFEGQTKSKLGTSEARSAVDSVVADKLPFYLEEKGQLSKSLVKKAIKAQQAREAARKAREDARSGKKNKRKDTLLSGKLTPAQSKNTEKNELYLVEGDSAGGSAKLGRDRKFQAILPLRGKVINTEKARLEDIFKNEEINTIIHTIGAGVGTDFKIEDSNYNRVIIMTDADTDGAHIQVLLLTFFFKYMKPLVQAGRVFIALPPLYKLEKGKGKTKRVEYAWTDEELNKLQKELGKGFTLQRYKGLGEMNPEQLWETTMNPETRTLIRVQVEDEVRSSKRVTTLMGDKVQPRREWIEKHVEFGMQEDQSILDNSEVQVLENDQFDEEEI
T1 sequence (P0C1U9 whole entry): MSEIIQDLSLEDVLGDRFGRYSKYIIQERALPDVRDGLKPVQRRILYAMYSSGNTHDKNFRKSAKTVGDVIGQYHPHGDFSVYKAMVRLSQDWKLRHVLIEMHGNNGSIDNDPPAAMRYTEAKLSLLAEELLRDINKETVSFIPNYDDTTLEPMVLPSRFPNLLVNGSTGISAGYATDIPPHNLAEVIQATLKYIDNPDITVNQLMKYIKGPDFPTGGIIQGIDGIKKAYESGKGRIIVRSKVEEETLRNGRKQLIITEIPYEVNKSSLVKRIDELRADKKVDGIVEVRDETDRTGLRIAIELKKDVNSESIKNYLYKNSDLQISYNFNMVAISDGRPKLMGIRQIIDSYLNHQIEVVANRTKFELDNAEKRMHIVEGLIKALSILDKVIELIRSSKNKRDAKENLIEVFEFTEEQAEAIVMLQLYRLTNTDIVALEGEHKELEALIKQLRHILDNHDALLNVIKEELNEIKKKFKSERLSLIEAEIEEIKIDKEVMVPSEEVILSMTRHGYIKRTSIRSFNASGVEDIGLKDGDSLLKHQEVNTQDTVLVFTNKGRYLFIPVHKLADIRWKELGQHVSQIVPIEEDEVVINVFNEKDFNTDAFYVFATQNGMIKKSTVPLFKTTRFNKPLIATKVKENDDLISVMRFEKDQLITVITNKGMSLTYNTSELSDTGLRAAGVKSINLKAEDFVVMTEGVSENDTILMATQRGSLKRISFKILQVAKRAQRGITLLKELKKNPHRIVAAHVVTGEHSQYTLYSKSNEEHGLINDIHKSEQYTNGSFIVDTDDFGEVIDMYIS
Protocol: (§1) A subset of analogs was used to assess the degree of inhibition of DNA gyrase or TopoIV (Inspiralis, Norwich, UK), both to establish the mechanism of action and to evaluate the relative balance of inhibitory activities (Table 1). A subset of compound was also assayed to determine the degree of inhibition of human topoisomerase II (Inspiralis, Norwich, UK)).
(§2) In all experiments, the activity of the enzymes was determined prior to the testing of the compounds and 1 unit (U) was defined as the amount of enzyme required to just fully supercoil, relax or decatenate the substrate (see explanation of gels). This amount of enzyme was initially used in determination of control inhibitor activity. These experiments were performed in duplicate.
(§3) For all assays the final DMSO concentration was 1%. 10 mM stocks of the compounds were serially diluted into 10% DMSO at 1 mM, 0.5 mM, 0.25 mM, 0.1 mM, 0.05 mM, 0.01 mM, 0.005 mM, 0.001 mM, 0.0005 mM, 0.0001 mM and 0.00005 mM. 3.0 μl of each dilution was added to a 30 μl assay.
(§4) Bands were visualised by ethidium staining for 20 minutes and destaining for 20 minutes. Gels were scanned using documentation equipment (GeneGenius, Syngene, Cambridge, UK) and % inhibition levels (where appropriate) were obtained with gel scanning software. (GeneTools, Syngene, Cambridge, UK)
Staphylococcus aureus Topo IV Decatenation Assay
1 U of Topo IV was incubated with 200 ng kDNA DNA in a 30 μl reaction at 37° C. for 30 minutes under the following conditions: 50 mM Tris.HCl (7.5), 5 mM MgCl2, 5 mM DTT, 1.5 mM ATP, 350 mM potassium glutamate and 0.05 mg/ml BSA.
Each reaction was stopped by the addition of 30 μl chloroform/iso-amyl alcohol (26:1) and 30 μl Stop Dye, before being loaded on a 1.0% TAE gel run at 70V for 2 hours.

[2] = target: T2, human topo II (Homo sapiens, UniProt P11388); experiment: Topoisomerase II (alpha) decatenation assay; format: biochemical; conditions: activity remaining at 100 μM compound; read-out: hTopoll (% activity remaining at 100 μM)
T2 construct: purchased Inspiralis, Norwich, UK
T2 sequence (P11388 whole entry): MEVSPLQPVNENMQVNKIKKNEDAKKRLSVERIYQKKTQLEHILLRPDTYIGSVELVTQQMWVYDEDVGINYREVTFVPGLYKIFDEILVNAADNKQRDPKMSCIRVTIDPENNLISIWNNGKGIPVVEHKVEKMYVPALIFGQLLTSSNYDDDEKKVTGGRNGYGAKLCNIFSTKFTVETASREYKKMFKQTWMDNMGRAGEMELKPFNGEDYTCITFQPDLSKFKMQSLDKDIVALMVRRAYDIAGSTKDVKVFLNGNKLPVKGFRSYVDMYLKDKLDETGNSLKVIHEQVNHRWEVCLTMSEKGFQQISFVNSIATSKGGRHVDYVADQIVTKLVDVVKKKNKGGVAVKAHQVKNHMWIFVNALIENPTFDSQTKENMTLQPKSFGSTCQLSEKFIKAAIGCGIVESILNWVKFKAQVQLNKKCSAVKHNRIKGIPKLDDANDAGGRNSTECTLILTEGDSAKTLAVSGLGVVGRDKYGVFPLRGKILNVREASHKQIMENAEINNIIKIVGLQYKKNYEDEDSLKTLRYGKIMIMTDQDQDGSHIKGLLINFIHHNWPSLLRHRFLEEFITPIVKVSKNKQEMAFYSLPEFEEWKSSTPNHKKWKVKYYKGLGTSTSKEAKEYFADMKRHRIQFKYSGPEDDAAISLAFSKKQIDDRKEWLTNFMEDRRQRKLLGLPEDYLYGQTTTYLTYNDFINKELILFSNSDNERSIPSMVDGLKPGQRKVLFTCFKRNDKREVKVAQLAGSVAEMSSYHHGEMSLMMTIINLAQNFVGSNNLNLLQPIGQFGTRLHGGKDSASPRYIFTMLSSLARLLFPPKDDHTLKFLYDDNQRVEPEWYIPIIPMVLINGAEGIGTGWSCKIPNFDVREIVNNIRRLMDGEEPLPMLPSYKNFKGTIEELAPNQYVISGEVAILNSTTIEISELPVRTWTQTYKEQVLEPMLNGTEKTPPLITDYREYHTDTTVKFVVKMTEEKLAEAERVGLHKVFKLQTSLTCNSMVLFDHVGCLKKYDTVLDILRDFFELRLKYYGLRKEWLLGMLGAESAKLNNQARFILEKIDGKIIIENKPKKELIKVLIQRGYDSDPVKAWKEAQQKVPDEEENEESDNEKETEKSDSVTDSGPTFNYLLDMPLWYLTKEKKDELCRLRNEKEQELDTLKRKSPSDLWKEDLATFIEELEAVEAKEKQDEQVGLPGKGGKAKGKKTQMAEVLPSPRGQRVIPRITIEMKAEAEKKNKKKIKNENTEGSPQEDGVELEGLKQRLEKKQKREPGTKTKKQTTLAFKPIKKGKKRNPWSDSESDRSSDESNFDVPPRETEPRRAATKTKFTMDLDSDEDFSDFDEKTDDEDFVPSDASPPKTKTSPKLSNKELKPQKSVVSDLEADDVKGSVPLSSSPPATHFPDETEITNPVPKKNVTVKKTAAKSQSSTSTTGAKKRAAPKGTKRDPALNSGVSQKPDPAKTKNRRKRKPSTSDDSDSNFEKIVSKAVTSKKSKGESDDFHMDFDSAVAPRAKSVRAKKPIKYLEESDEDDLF
Protocol: as §1, §2, §3, §4
Topoisomerase II (Alpha) Decatenation Assay
Each reaction was stopped by the addition of 30 μl chloroform/iso-amyl alcohol (26:1) and 30 μl Stop Dye, before being loaded on a 1.0% TAE gel run at 90V for 2 hours.

[3] = system: USA 300 strain of MRSA; experiment: MIC by broth microdilution, USA 300 strain of MRSA; format: cell-based, Staphylococcus aureus; conditions: multiple values when multiple MIC assays were conducted; for MIC: Staphylococcus aureus, read-out: MIC USA300
Protocol: Minimum inhibitory concentrations were determined using the quality control strain S. aureus ATCC 29213 (Table 1) by the broth microdilution method according to guidelines of the Clinical and Laboratory Standards Institute (CLSI) (Cockerill, F. R.; et al., 2012, Methods for dilution antimicrobial susceptibility tests for bacteria that grow aerobically; approved standard-ninth edition. MA07-A9. Clinical and Laboratory Standard Institute, Wayne, Pa.). […] MICs for selected compounds were also determined using a USA 300 strain of MRSA (Hidron, et al., Lancet Infect. Dis. 2009, 9:384-392). Vancomycin was used as an additional control.

[4] = system: S. aureus ATCC 29213; experiment: MIC by broth microdilution (CLSI), quality control strain S. aureus ATCC 29213; format: cell-based, Staphylococcus aureus; conditions: Staphylococcus aureus, ATCC29213, S. aureus ATCC 29213; multiple values when multiple MIC assays were conducted
Protocol: Minimum inhibitory concentrations were determined using the quality control strain S. aureus ATCC 29213 (Table 1) by the broth microdilution method according to guidelines of the Clinical and Laboratory Standards Institute (CLSI) (Cockerill, F. R.; et al., 2012, Methods for dilution antimicrobial susceptibility tests for bacteria that grow aerobically; approved standard-ninth edition. MA07-A9. Clinical and Laboratory Standard Institute, Wayne, Pa.). […] Published quality control ranges for gepotidacin and ciprofloxacin were used to validate each assay. MICs for selected compounds were also determined using a USA 300 strain of MRSA (Hidron, et al., Lancet Infect. Dis. 2009, 9:384-392). Vancomycin was used as an additional control.

[5] = target: T3, Staphylococcus aureus gyrase (Staphylococcus aureus, UniProt P0A0K8+P20831); experiment: Staphylococcus aureus gyrase supercoiling assay; format: biochemical
T3 construct: purchased Inspiralis, Norwich, UK
T3 sequence (P20831 whole entry): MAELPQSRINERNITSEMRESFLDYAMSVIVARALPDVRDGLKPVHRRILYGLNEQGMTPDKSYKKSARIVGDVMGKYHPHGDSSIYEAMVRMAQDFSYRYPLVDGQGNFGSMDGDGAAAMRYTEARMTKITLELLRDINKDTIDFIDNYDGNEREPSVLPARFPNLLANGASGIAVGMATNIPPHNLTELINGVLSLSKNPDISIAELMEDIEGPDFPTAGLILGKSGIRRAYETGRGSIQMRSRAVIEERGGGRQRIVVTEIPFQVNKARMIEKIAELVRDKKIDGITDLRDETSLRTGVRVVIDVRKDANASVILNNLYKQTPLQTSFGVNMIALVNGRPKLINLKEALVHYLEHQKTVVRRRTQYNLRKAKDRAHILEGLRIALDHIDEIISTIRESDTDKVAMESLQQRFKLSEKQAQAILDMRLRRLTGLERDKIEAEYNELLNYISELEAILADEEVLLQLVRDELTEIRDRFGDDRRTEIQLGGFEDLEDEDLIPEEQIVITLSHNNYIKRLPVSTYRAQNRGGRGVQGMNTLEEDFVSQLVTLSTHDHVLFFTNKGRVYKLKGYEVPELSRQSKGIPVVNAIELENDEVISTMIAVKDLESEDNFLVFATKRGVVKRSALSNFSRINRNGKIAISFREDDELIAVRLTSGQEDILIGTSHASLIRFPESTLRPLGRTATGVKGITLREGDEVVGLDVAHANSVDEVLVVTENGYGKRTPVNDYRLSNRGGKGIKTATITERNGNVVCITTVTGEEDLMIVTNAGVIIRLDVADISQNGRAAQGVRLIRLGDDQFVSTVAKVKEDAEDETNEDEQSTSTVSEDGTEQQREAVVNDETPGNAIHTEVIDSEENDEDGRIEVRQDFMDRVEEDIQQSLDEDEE
T3 sequence (P0A0K8 whole entry): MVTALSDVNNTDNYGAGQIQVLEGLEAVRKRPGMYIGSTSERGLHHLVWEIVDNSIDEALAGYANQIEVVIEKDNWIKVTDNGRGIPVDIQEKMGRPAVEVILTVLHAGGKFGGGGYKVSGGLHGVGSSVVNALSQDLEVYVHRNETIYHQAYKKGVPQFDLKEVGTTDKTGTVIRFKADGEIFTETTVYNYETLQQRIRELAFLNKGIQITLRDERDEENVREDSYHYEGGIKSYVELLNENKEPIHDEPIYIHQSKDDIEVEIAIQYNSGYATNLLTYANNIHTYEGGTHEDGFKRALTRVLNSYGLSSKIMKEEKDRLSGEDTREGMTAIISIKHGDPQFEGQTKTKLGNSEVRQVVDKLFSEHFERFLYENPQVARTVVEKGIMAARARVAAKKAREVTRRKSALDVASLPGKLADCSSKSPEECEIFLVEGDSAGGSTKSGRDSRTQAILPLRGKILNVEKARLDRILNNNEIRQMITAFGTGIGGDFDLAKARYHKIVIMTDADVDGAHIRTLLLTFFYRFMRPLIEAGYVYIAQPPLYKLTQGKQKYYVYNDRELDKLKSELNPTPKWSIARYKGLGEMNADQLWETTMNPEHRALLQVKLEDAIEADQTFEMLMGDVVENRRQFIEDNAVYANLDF
Protocol: as §1, §2, §3, §4
Staphylococcus aureus gyrase supercoiling
1 U of DNA gyrase was incubated with 0.5 μg of relaxed pBR322 DNA in a 30 μl reaction at 37° C. for 30 minutes under the following conditions: 40 mM HEPES. KOH (pH 7.6), 10 mM magnesium acetate, 10 mM DTT, 2 mM ATP, 500 mM potassium glutamate and 0.05 mg/ml BSA.
Each reaction was stopped by the addition of 30 μl chloroform/iso-amyl alcohol (26:1) and 30 μl Stop Dye (40% sucrose (w/v), 100 mM Tris.HCl (pH 7.5), 10 mM EDTA, 0.5 μg/ml bromophenol blue), before being loaded on a 1.0% TAE gel run at 70V for 2 hours.

[6] = S. aureus Topo IV decatenation, read-out: TopolV Decat IC50
[7] = S. aureus DNA gyrase supercoiling, read-out: Gyrase IC50

Row | SMILES | IC50 [1] | remaining activity at 100 µM [2] | MIC [3] | MIC [4] | IC50 [5] | IC50 [1, 6] | IC50 [5, 7] | MIC USA300 [3]
1 | COc1ccc2ncc(F)c(CC[C@H]3OC[C@H](NCc4ccc5c(c4)OCCO5)CO3)c2n1 [AB-0015, N-((2,3-dihydrobenzo[b][1,4]dioxin-6-yl)methyl)-2-(2-(3-fluoro-6-methoxy-1,5-naphthyridin-4-yl)ethyl)-trans-1,3-dioxan-5-amine] | 0.98 µM | 55% | 0.125 mg/L (≈ 0.274 µM) | ≤ 0.25 mg/L | 0.03 µM | – | – | –
2 | COc1ccc2ncc(F)c(C(O)C[C@H]3OC[C@H](NCc4cc5c(cn4)OCCC5)CO3)c2c1 (stereo partly drawn) [AB-0020, 2-(5-(((3,4-dihydro-2H-pyrano[2,3-c]pyridin-6-yl)methyl)amino)-trans-1,3-dioxan-2-yl)-1-(3-fluoro-6-methoxyquinolin-4-yl)ethan-1-ol] | – | 92.9% | 1 mg/L (≈ 2.13 µM) | 0.5 mg/L (≈ 1.06 µM) | – | 15.2 µM | 0.13 µM | –
3 | COc1ccc2nccc(CC[C@H]3OC[C@H](NCc4ccc5c(n4)NC(=O)CO5)CO3)c2c1 [AB-0055, 6-(((2-(2-(6-methoxyquinolin-4-yl)ethyl)-trans-1,3-dioxan-5-yl)amino)methyl)-2H-pyrido[3,2-b][1,4]oxazin-3(4H)-one] | – | 99.1% | 1 mg/L (≈ 2.22 µM) | 0.5 mg/L (≈ 1.11 µM) | – | > 100 µM | 0.78 µM | –
4 | COc1ccc2ncc(F)c(CC[C@H]3OC[C@H](NCc4ccc5c(n4)NC(=O)CS5)CO3)c2n1 [AB-0059, 6-(((2-(2-(3-fluoro-6-methoxy-1,5-naphthyridin-4-yl)ethyl)-trans-1,3-dioxan-5-yl)amino)methyl)-2H-pyrido[3,2-b][1,4]thiazin-3(4H)-one] | – | 95.7% | 0.25 mg/L (≈ 0.515 µM) | ≤ 0.5 mg/L | – | > 100 µM | 0.17 µM | –
5 | COc1ccc2nccc(CC[C@H]3OC[C@H](NCc4cc5c(cn4)OCCC5)CO3)c2c1 [AB-0014, N-((3,4-dihydro-2H-pyrano[2,3-c]pyridin-6-yl)methyl)-2-(2-(6-methoxyquinolin-4-yl)ethyl)-trans-1,3-dioxan-5-amine] | – | 93.8% | 2 mg/L (≈ 4.59 µM) | 1 mg/L (≈ 2.3 µM) | – | 25 to 50 µM | 0.33 µM | –
6 | COc1ccc2nccc(CC[C@H]3OC[C@H](NC/C=C/c4ccccc4)CO3)c2c1 [AB-0051] | – | 93.7% | 1 mg/L (≈ 2.47 µM) | 1 mg/L (≈ 2.47 µM) | – | 50 to 100 µM | 0.42 µM | –
7 | COc1ccc2nccc(CC[C@H]3OC[C@H](NCc4ccc(Cl)c(F)c4)CO3)c2c1 [AB-0030, N-(4-chloro-3-fluorobenzyl)-2-(2-(6-methoxyquinolin-4-yl)ethyl)-trans-1,3-dioxan-5-amine] | – | 97.8% | 1 mg/L (≈ 2.32 µM) | 2 mg/L (≈ 4.64 µM) | – | > 100 µM | 0.95 µM | –
8 | COc1ccc2nccc(CC[C@H]3OC[C@H](NCc4ccc(F)c(Cl)c4)CO3)c2c1 [AB-0023, N-(3-chloro-4-fluorobenzyl)-2-(2-(6-methoxyquinolin-4-yl)ethyl)-trans-1,3-dioxan-5-amine] | – | 97.7% | – | 8 mg/L (≈ 18.6 µM) | – | > 100 µM | 2.1 µM | –
9 | COc1ccc2ncc(F)c(C(O)C[C@H]3OC[C@H](NCc4ccc5c(c4)OCCO5)CO3)c2c1 (stereo partly drawn) [AB-0016, 2-(5-(((2,3-dihydrobenzo[b][1,4]dioxin-6-yl)methyl)amino)-trans-1,3-dioxan-2-yl)-1-(3-fluoro-6-methoxyquinolin-4-yl)ethan-1-ol] | 7.98 µM | 77.4% | 0.25 mg/L (≈ 0.531 µM) | 0.125 mg/L (≈ 0.266 µM) | 0.09 µM | – | – | 0.25 mg/L (≈ 0.531 µM)
10 | COc1ccc2ncc(=O)n(CC[C@H]3OC[C@H](NCc4ccc5c(c4)OCCO5)CO3)c2c1 [AB-0002, 1-(2-(5-(((2,3-dihydrobenzo[b][1,4]dioxin-6-yl)methyl)amino)-1,3-trans-dioxan-2-yl)ethyl)-7-methoxyquinoxalin-2(1H)-one] | – | 97.5% | – | 4 mg/L (≈ 8.82 µM) | – | > 100 µM | 2.01 µM | –
11 | COc1ccc2nccc(CC[C@H]3OC[C@H](NCc4ccc(C#N)cc4)CO3)c2c1 [AB-0047, 4-(((2-(2-(6-methoxyquinolin-4-yl)ethyl)-trans-1,3-dioxan-5-yl)amino)methyl)benzonitrile] | – | 88.4% | – | > 64 mg/L | – | > 100 µM | 13.3 µM | –
12 | COc1ccc2ncc(F)c(CC[C@H]3OC[C@H](NCc4ccc5c(n4)NC(=O)CO5)CO3)c2n1 [AB-0060] | 5 to 10 µM | 83.1% | 0.25 mg/L (≈ 0.533 µM) | 0.125 mg/L (≈ 0.266 µM) | 0.13 µM | – | – | –
13 | COc1ccc2nccc(CC[C@H]3OC[C@H](NCc4ccc(Cl)c(Cl)c4)CO3)c2c1 [AB-0012, N-(3,4-dichlorobenzyl)-2-(2-(6-methoxyquinolin-4-yl)ethyl)-trans-1,3-dioxan-5-amine] | – | 93.2% | 0.5 mg/L (≈ 1.12 µM) | – | – | > 100 µM | 0.28 µM | –
14 | COc1ccc2nccc(CC[C@H]3OC[C@H](NCc4ccc5c(c4)OCCO5)CO3)c2c1 [AB-0011, N-((2,3-dihydrobenzo[b][1,4]dioxin-6-yl)methyl)-2-(2-(6-methoxyquinolin-4-yl)ethyl)-trans-1,3-dioxan-5-amine] | 13.8 µM | 84.2% | 0.5 mg/L (≈ 1.15 µM) | – | – | – | 0.1 µM | –
15 | COc1ccc(CN[C@H]2CO[C@H](CCc3ccnc4ccc(OC)cc34)OC2)cc1 [AB-0031, N-(4-methoxybenzyl)-2-(2-(6-methoxyquinolin-4-yl)ethyl)-trans-1,3-dioxan-5-amine] | – | 98.7% | – | 4 mg/L (≈ 9.79 µM) | – | > 100 µM | 1.53 µM | –
